# Measured values from US9512139B2, “Conformationally constrained, fully synthetic macrocyclic compounds” (POLYPHOR AG, priority 2009, dated 2016).
# Legend:
# in vitro [1] = assay type: in vitro ADME, human; conditions: human, plasma, 10 µM; for Plasma Stability 240 min hum [% remain.]: 4 h
# Description: Example compounds were dissolved in DMSO/H2O 90:10 to a final concentration of 10 mM for plasma stability determination and metabolic stability determination.
# Human plasma (3-5 donors, Blutspendedienst SRK, Basel) and CD-1 mouse plasma (mixed gender pool >50 animals, Innovative Research, CA, USA) are both sodium citrate stabilized. The assay is performed in triplicates at 10 μM compound concentration and 37° C. Samples are taken at 0, 15, 60, and 240 minutes and stopped by precipitation with 2 volumes of acetonitrile. The supernatant is collected, evaporated and reconstituted in a 5% acetonitrile solution to be analyzed by HPLC/MS/MS. The resulting peak area counts are expressed in percent of the 0 value and used to determine the endpoint stability in % and the half life in minutes. In order to monitor assay integrity the degradation of propantheline is assayed with every experimental set.
# in vitro [2] = assay type: in vitro ADME, mouse; conditions: CD-1, mouse, plasma; for Plasma Stability T½ [min] mouse / Plasma Stability 240 min mouse [% remain.]: both, 10 µM; for Plasma Stability 240 min mouse [% remain.]: 4 h
# [3] = Metabolic stability assay, CD-1 mouse microsomes; assay type: in vitro ADME; conditions: CD-1, mouse, microsomes; for half-life at 10 µM: both sexes; for Metabolic Stability 60 min mouse [% remain.] / Metabolic Stability T½ [min] mouse: both, 10 µM; for Metabolic Stability 60 min mouse [% remain.]: 1 h
# Description: (§1) 4. Plasma and Metabolic Stability Assays
# (§2) The assays were conducted according to literature precedents (F. P. Guengerich, Analysis and Characterization of Enzymes; in: Principles and Methods of Toxicology; A. W. Hayes (Ed.) Raven Press: New York, 1989, 777-813; R. Singh et al., In vitro metabolism of a potent HIV-protease inhibitor (141W94) using rat, monkey and human liver S9, Rapid Commun. Mass Spectrom. 1996, 10, 1019-1026).
# (§3) Metabolic Stability Assay
# (§4) Microsomes from a human 50 donor mixed gender pool and 1:1 mixtures of microsomes from CD-1 mouse single-gender pools are purchased from Celsis (Belgium). The enzymatic reaction is performed in a buffer containing an NADPH regeneration system and microsomes with the following end concentrations: 100 mM potassium phosphate buffer (all from Sigma), 1 mg/mL glucose-6-phosphate, 1 mg/mL β-nicotinamide adenine dinucleotide phosphate (NADP), 0.65 mg/mL magnesium chloride, 0.8 units/mL of glucose-6-phosphate dehydrogenase (prediluted with 5 mM citrate buffer), 10 μM compound and 1 mg/ml microsomal protein. Compounds are incubated at 37° C. in duplicates and samples are taken after 0, 20 and 60 minutes. After acetonitrile precipitation (2 volumes) and HPLC/MS/MS analysis metabolic turnover is expressed in % of the initial 0 minutes value and half life T½ (min) is calculated. Verapamil for human and propranolol for mouse are used as reference and are assayed with every experimental set.
# [4] = Metabolic stability assay, human microsomes; assay type: in vitro ADME; conditions: human, microsomes; for Metabolic Stability T½ [min] hum / Metabolic Stability 60 min hum [% remain.]: both, 10 µM; for Metabolic Stability 60 min hum [% remain.]: 1 h; for half-life at 10 µM: both sexes
# Description: as §1, §2, §3, §4
# 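For Plasma Stability 240 min mouse [% remain.] in this document: sodium citrate stabilized mouse plasma, parent compound quantified by HPLC/MS/MS relative to its peak area at time zero, run in triplicate.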
# 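For Plasma Stability T½ [min] mouse in this document: sodium citrate stabilized mouse plasma, parent compound quantified by HPLC/MS/MS relative to its peak area at time zero, run in triplicate.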
SMILES,Plasma Stability T½ [min] hum (in vitro [1]) [min],Plasma Stability 240 min hum [% remain.] (in vitro [1]),Plasma Stability T½ [min] mouse (in vitro [2]) [min],Plasma Stability 240 min mouse [% remain.] (in vitro [2]),half-life at 10 µM [3] [h],Metabolic Stability 60 min mouse [% remain.] [3] [% remain.],Metabolic Stability T½ [min] hum [4] [min],Metabolic Stability 60 min hum [% remain.] [4] [% remain.],Metabolic Stability T½ [min] mouse [3] [min],half-life at 10 µM [4] [h],half-life at 10 µM (in vitro [2]; both sexes) [h]
"CN1CC(=O)N2C[C@@H](NC(=O)CN3CCCC3)C[C@H]2COc2ccc(F)cc2C(=O)N(C)[C@@H](C(=O)N2CCCC2)CCC1=O [Ex. 98, N-[(2S,11R,19aS)-15-fluoro-7,12-dimethyl-5,8,13-trioxo-11-(1-pyrrolidinylcarbonyl)-2,3,6,7,8,9, 10,11,12,13,19,19a-dodecahydro-1H,5H-pyrrolo[2,1-c][1,4,7,12]benzoxatriazacyclopentadecin-2-yl]-2-(1-pyrrolidinyl)acetamide]",> 240,100,> 240,78,,100,> 60,97,> 60,,
"CCN(CC)[C@H]1C[C@H]2COc3ccc(F)cc3C(=O)N(C)[C@H](C(=O)N3CCCC3)CCC(=O)N(C)CC(=O)N2C1 [Ex. 43, (2S,11S,19aS)-2-(diethylamino)-15-fluoro-7,12-dimethyl-11-(1-pyrrolidinylcarbonyl)-2,3,6,7,9,10,11,12,19,19a-decahydro-1H,5H-pyrrolo [2,1-c] [1,4,7,12]benzoxatriazacyclopentadecine-5,8,13-trione]",> 240,82,> 240,89,,98,> 60,100,> 60,,
"CCCCC(=O)N[C@H]1C[C@H]2COc3ccc(F)cc3C(=O)N(C)[C@@H](C(=O)NCc3ccc4ccccc4c3)CCC(=O)N(C)CC(=O)N2C1 [Ex. 103, (2S,11R,19aS)-15-fluoro-7,12-dimethyl-N-(2-naphthylmethyl)-5,8,13-trioxo-2-(pentanoylamino)-2,3,6,7,8,9, 10,11,12,13,19,19a-dodecahydro-1H,5H-pyrrolo[2,1-c][1,4,7,12] benzoxatriazacyclopentadecine-11-carboxamide]",,97,,75,0.6,25,,22,,0.583,
"CC(=O)N[C@H]1CN(C)C(=O)c2cccc(c2)OC[C@@H]2C[C@H](NC(=O)CN(C)C)CN2C(=O)CN(C)C1=O [Ex. 208, N-[(4S,6S,13S)-13-(acetylamino)-11,15-dimethyl-9,12,16-trioxo-2-oxa-8,11,15-triazatricyclo[15.3.1.0^4,8]henicosa-1(21),17,19-trien-6-yl]-2-(dimethylamino)acetamide]",> 240,98,> 240,90,,100,> 60,84,> 60,,
"CCCCC(=O)N[C@@H]1C[C@H]2COc3ccc(F)cc3C(=O)N(C)[C@H](C(=O)N(C)CCN(C)C)CCC(=O)N(C)CC(=O)N2C1 [Ex. 78, (2R,11S,19aS)-N-[2-(dimethylamino)ethyl]-15-fluoro-N,7,12-trimethyl-5,8,13-trioxo-2-(pentanoylamino)-2,3,6,7,8,9,10,11,12,13,19, 19a-dodecahydro-1H,5H-pyrrolo[2,1-c][1,4,7,12]benzoxatriazacyclopentadecine-11-carboxamide]",> 240,65,> 240,100,,100,> 60,78,> 60,,
"CN1CC(=O)N2C[C@@H](N)C[C@H]2COc2ccc(F)cc2C(=O)N(C)[C@@H](C(=O)NCc2ccc3ccccc3c2)CCC1=O [Ex. 91, (2S,11R,19aS)-2-amino-15-fluoro-7,12-dimethyl-N-(2-naphthylmethyl)-5,8,13-trioxo-2,3,6,7,8,9,10,11,12,13,19,19a-dodecahydro-1H,5H-pyrrolo[2,1-c][1,4,7,12] benzoxatriazacyclopentadecine-11-carboxamide]",> 240,96,> 240,88,,95,> 60,91,> 60,,
"CCCCC(=O)N[C@H]1C[C@H]2COc3cccc(c3)C(=O)N(C)CC[C@H](N)C(=O)N2C1 [Ex. 167, N-[(4S,6S,10S)-10-amino-13-methyl-9,14-dioxo-2-oxa-8,13-diazatricyclo[13.3.1.0^4,8]nonadeca-1(19),15,17-trien-6-yl] pentanamide]",,,,17,,65,> 60,58,> 60,,0.583

# Other lines, results leading:
Plasma Stability T½ [min] hum (in vitro [1]) [min],Plasma Stability 240 min hum [% remain.] (in vitro [1]),Plasma Stability T½ [min] mouse (in vitro [2]) [min],Plasma Stability 240 min mouse [% remain.] (in vitro [2]),half-life at 10 µM [3] [h],Metabolic Stability 60 min mouse [% remain.] [3] [% remain.],Metabolic Stability T½ [min] hum [4] [min],Metabolic Stability 60 min hum [% remain.] [4] [% remain.],Metabolic Stability T½ [min] mouse [3] [min],half-life at 10 µM [4] [h],half-life at 10 µM (in vitro [2]; both sexes) [h],SMILES
> 240,94,> 240,88,0.7,32,,,,,,"CN1CC(=O)N2C[C@H](NC(=O)Cc3ccc4ccccc4c3)C[C@H]2COc2ccc(cc2)C(=O)N(C)[C@H](C(=O)N2CCCC2)CCC1=O [Ex. 264, N-[(4S,6R,15S)-11,16-dimethyl-9,12,17-trioxo-15-(1-pyrrolidinylcarbonyl)-2-oxa-8,11,16-triazatricyclo[16.2.2.0^4,8]docosa-1(20),18,21-trien-6-yl]-2-(2-naphthyl)acetamide]"
> 240,87,> 240,101,0.45,25,,41,,0.783,,"CN1CCC[C@H](N)C(=O)N2C[C@@H](OCc3ccc(-c4cncnc4)cc3)C[C@H]2COc2cccc(c2)C1=O [Ex. 577, (4S,6S,10S)-10-amino-14-methyl-6-{[4-(5-pyrimidinyl)benzyl]oxy}-2-oxa-8,14-diazatricyclo[14.3.1.0^4,8]icosa-1(20),16,18-triene-9,15-dione]"
> 240,95,> 240,100,,93,> 60,59,> 60,,,"CN1CCC[C@H](NC(=O)CC(C)(C)C)C(=O)N2C[C@@H](N)C[C@H]2COc2cccc(c2)C1=O [Ex. 533, N-[(4S,6S,10S)-6-amino-14-methyl-9,15-dioxo-2-oxa-8,14-diazatricyclo[14.3.1.0^4,8]icosa-1(20),16,18-trien-10-yl]-3,3-dimethylbutanamide]"
> 240,100,> 240,96,,98,> 60,100,> 60,,,"CC(=O)N1CCN([C@H]2CCCN(C)C(=O)c3cccc(c3)OC[C@@H]3C[C@H](O)CN3C2=O)CC1 [Ex. 582, (4S,6S,10S)-10-(4-acetylpiperazino)-6-hydroxy-14-methyl-2-oxa-8,14-diazatricyclo[14.3.1.0^4,8]icosa-1(20),16,18-triene-9,15-dione]"
> 240,100,> 240,93,0.383,4,,0,,0.35,,"CCN(CC)[C@@H]1C[C@H]2COc3ccc(cc3)C(=O)N(C)[C@H](C(=O)NCc3ccc4ccccc4c3)CCC(=O)N(C)CC(=O)N2C1 [Ex. 262, (4S,6R,15S)-6-(diethylamino)-11,16-dimethyl-N-(2-naphthylmethyl)-9,12,17-trioxo-2-oxa-8,11,16-triazatricyclo[16.2.2.0^4,8]docosa-1(20),18,21-triene-15-carboxamide]"
